Drawing on patent US20120059053A1, “COMPOUNDS OF 2,3-DIHYDRO-BENZOFURAN” (FERRER INTERNATIONAL, S.A., priority 2007, published 2012), this text covers concentration, metabolic stability and brain/plasma ratio for 2 molecules.

A short description of data set [1]: Levels in rat plasma after po administration. The class given is in vivo. The settings on record: 15 min after po administration of 1 mg/Kg.
Data set [2] is described as follows: Metabolic stability by disappearance of compound on incubation in human microsomes. The settings on record: 120 min, 1 μM.
A short description of data set [3]: Brain/plasma ratio. To be noted: in vivo.

As to `CCC(=O)NCC[C@@H]1CCc2ccc(OC)cc21` [(1S)-N-[2-(6-methoxy-indan-1-yl)-ethyl]-propionamide], in data set [1], the concentration at 15 min was determined as 10.1 ng/mL. The metabolic stability result in data set [2] is reported as “less than 30%”. Also, the brain/plasma ratio entry in data set [3] is “zero”.
As for `COc1ccc2c(c1)C(CCNC(C)=O)CO2` (stereo not shown) [Example 1, N-[2-(5-methoxy-2,3-dihydro-benzofuran-3-yl)-ethyl]-acetamide], the concentration at 15 min in data set [1] amounted to 98 ng/mL.
